From US7037644B1, “Means and methods for monitoring non-nucleoside reverse transcriptase inhibitor antiretroviral therapy and guiding therapeutic decisions in the treatment of HIV/AIDS” (ViroLogic, Inc., priority 1998, dated 2006) come the findings set out here.

Holding throughout (format): cell-based, HIV-1
Assay [1] has as its system RTV-644 (RT K101E, G190S). The assay is described as follows: Phenotypic susceptibility assay (patient RTV). The following applies: for decrease in susceptibility (fold, IC50): patient RTV pool; for change in susceptibility: patient virus vs reference virus. The text has this: (§1) The resistance test vectors containing a functional luciferase gene cassette were constructed and host cells were transfected with the resistance test vector DNA. The resistant test vectors contained patient-derived reverse transcriptase and protease sequences that were either susceptible or resistant to the antiretroviral agents, such as nucleoside reverse transcriptase inhibitors, non-nucleoside reverse transcriptase inhibitors and protease inhibitors. The resistance test vector viral particles produced by transfecting the resistance test vector DNA into host cells, either in the presence or absence of protease inhibitors, were used to infect target host cells grown either in the absence of NRTI or NNRTI or in the presence of increasing concentrations of the drug. The amount of luciferase activity produced in infected target host cells in the presence of drug was compared to the amount of luciferase produced in infected target host cells in the absence of drug. Drug resistance was measured as the amount of drug required to inhibit by 50% the luciferase activity detected in the absence of drug (inhibitory concentration 50%, IC50). The IC50 values were determined by plotting percent drug inhibition vs. log10 drug concentration.
Host cells were seeded in 10-cm-diameter dishes and were transfected several days after plating with resistance test vector plasmid DNA and the envelope expression vector. Transfections were performed using a calcium-phosphate precipitation procedure. The cell culture media containing the DNA precipitate was replaced with fresh medium, from one to 24 hours, after transfection. Cell culture media containing resistance test vector viral particles was harvested one to four days after transfection and was passed through a […] filter before being stored at […]. HIV capsid protein (p24) levels in the harvested cell culture media were determined by an EIA method as described by the manufacturer (SIAC; Frederick, Md.). Before infection, target cells (293 and 293/T) were plated in cell culture media. […] The inhibitory effect of the drug was determined using the following equation: % luciferase inhibition=1−(RLUluc [drug]÷RLUluc)×100 where RLUluc [drug] is the relative light unit of luciferase activity in infected cells in the presence of drug and RLUluc is the Relative Light Unit of luciferase activity in infected cells in the absence of drug. […]
A resistance test vector was constructed as described in Example 1 from a patient sample designated 97-644. […] RTV-644 was then tested using the phenotypic susceptibility assay to determine accurately and quantitatively the level of susceptibility to a panel of anti-retroviral drugs. […] An IC50 was determined for each drug tested. […]

The subject of assay [2] is RTV-675, patient 98-675 (RT A98G). The assay is described as follows: Phenotypic susceptibility assay (patient RTV). The following applies: patient RTV pool. The method, then:
(§2) The resistance test vectors containing a functional luciferase gene cassette were constructed and host cells were transfected with the resistance test vector DNA. The resistant test vectors contained patient-derived reverse transcriptase and protease sequences that were either susceptible or resistant to the antiretroviral agents, such as nucleoside reverse transcriptase inhibitors, non-nucleoside reverse transcriptase inhibitors and protease inhibitors. […] The IC50 values were determined by plotting percent drug inhibition vs. log10 drug concentration.
(§3) Host cells were seeded in 10-cm-diameter dishes and were transfected several days after plating with resistance test vector plasmid DNA and the envelope expression vector. […] HIV capsid protein (p24) levels in the harvested cell culture media were determined by an EIA method as described by the manufacturer (SIAC; Frederick, Md.). […] The inhibitory effect of the drug was determined using the following equation: % luciferase inhibition=1−(RLUluc [drug]÷RLUluc)×100 where RLUluc [drug] is the relative light unit of luciferase activity in infected cells in the presence of drug and RLUluc is the Relative Light Unit of luciferase activity in infected cells in the absence of drug. […]

The test system of assay [3] is RTV-652, patient 98-652 (RT V108I). The assay is described as follows: Phenotypic susceptibility assay (patient RTV). Particulars: patient RTV pool; below 1 = increased susceptibility. The method, then:
as §2, §3

A further assay has as its system P225H-RTV. The assay is described as follows: Phenotypic susceptibility assay (site directed mutant RTV). The following applies: P225H alone vs wild type control RTV.
From the text: as §1
(§4) Host cells were seeded in 10-cm-diameter dishes and were transfected several days after plating with resistance test vector plasmid DNA and the envelope expression vector. Transfections were performed using a calcium-phosphate precipitation procedure. The cell culture media containing the DNA precipitate was replaced with fresh medium, from one to 24 hours, after transfection. Cell culture media containing resistance test vector viral particles was harvested one to four days after transfection and was passed through a […] filter before being stored at […]. HIV capsid protein (p24) levels in the harvested cell culture media were determined by an EIA method as described by the manufacturer (SIAC; Frederick, Md.). Before infection, target cells (293 and 293/T) were plated in cell culture media. Control infections were performed using cell culture media from mock transfections (no DNA) or transfections containing the resistance test vector plasmid DNA without the envelope expression plasmid. One to three or more days after infection the media was removed and cell lysis buffer (Promega) was added to each well. Cell lysates were assayed for luciferase activity (FIG. 3). The inhibitory effect of the drug was determined using the following equation: % luciferase inhibition=1−(RLUluc [drug]÷RLUluc)×100 where RLUluc [drug] is the relative light unit of luciferase activity in infected cells in the presence of drug and RLUluc is the Relative Light Unit of luciferase activity in infected cells in the absence of drug. IC50 values were obtained from the sigmoidal curves that were generated from the data by plotting the percent inhibition of luciferase activity vs. the log10 drug concentration. The drug inhibition curves are shown in (FIG. 3).
(§5) Genotypic changes that are observed to correlate with changes in phenotypic patterns of drug susceptibility are evaluated by construction of resistance test vectors containing the specific mutation on a defined, wild-type (drug susceptible) genetic background. Mutations may be incorporated alone and/or in combination with other known drug resistance mutations that are thought to modulate the susceptibility of HIV to a certain drug or class of drugs. Mutations are introduced into the resistance test vector through any of the widely known methods for site-directed mutagenesis. In one embodiment of this invention the mega-primer PCR method for site-directed mutagenesis is used. […]

Assay [4] has as its system RTV with P236L plus K103N, Y181C or both. The assay is described as above. Particulars: P236L with K103N and/or Y181C vs RTV lacking P236L.
From the text: as §1, §4, §5

“Also recorded” adds a separate entry of the source.

For `CC(C)Nc1cccnc1N1CCN(C(=O)c2cc3cc(NS(C)(=O)=O)ccc3[nH]2)CC1` [delavirdine], the results for the “decrease in susceptibility (fold, IC50)” value in assay [1] and in assay [2] were 2.5 fold and 2.1 fold, respectively. Moreover, the “change in susceptibility” value in assay [1] is recorded as “little or no resistance”; in the assay on P225H-RTV, “more susceptible; also recorded: increase; also recorded: increase3s susceptibility”; in assay [4], “less susceptible; also recorded: additional reduction; also recorded: severe resistance”. In addition, the “change in susceptibility (fold, IC50)” value in assay [3] is 0.97 fold.
Consider `O=C1Nc2ccc(Cl)cc2[C@@](C#CC2CC2)(C(F)(F)F)O1` [efavirenz], for which, in assay [4], the “change in susceptibility” value is “restores a significant portion of the loss of susceptibility”.
As for `Cc1ccnc2c1NC(=O)c1cccnc1N2C1CC1` [nevirapine], the “decrease in susceptibility (fold, IC50)” value in assay [1] turned out to be 600 fold; in assay [2], 6 fold. Further, the “change in susceptibility” value is reported as “resistant” in assay [1] and “No significant change; also recorded: little or no change” in the assay with P225H-RTV. The “change in susceptibility (fold, IC50)” value in assay [3] was 5 fold.
